Consider 18 molecules from US20250154686A1, “COMPOUND LIBRARY” (CHUGAI SEIYAKU KABUSHIKI KAISHA, priority 2021, published 2025).

The target of the assay is T1, Bcl-2 protein (Recombinant Human Bcl-2 Protein) (Homo sapiens, UniProt P10415).
T1 construct: purchased Novus Biologicals NBP2-34889
In words: AS-MS evaluation of binding of the Example 4 mixture library (1200 compounds/well) to Bcl-2, ASMS ratio (%). The method, boiled down:
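A pooled 1200-compound mixture (20 nM each final) was incubated with 20 μM recombinant human Bcl-2 in pH 7.4 Tris-HCl buffer with NaCl, Tween-20 and DTT for 1 h at 23° C. in the dark. Bound ligands were separated by spin-column SEC and measured by reverse-phase LC/MS; ASMS ratio (%) was calculated against protein-free unfiltered standard and protein-free SEC blank.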

[1] abbreviates: AS-MS, Example 4 mixture library, Bcl-2, replicate n = 1.
Where [2] appears, read: AS-MS, Example 4 mixture library, Bcl-2, replicate n = 2.
Setting [3] is: AS-MS, mixture of 1200 compounds/well, Bcl-2 protein, replicate n = 1.
[4] abbreviates: AS-MS, mixture of 1200 compounds/well, Bcl-2 protein, replicate n = 2.
Setting [5] is: replicate n = 1, mixture library, value belongs to the MS peak assigned to the compound.
The mark [6] stands for this setting: replicate n = 2, mixture library, value belongs to the MS peak assigned to the compound.

T1 sequence (P10415 whole entry): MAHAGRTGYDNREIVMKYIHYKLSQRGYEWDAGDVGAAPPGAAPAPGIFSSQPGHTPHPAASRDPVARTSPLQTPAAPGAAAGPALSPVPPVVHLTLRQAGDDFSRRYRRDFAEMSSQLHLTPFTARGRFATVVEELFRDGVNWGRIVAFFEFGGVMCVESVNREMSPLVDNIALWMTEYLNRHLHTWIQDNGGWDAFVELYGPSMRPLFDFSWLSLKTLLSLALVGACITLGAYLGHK

For `CCOc1cncc(-c2cc(CN3CCN(c4ccc(C(=O)NS(=O)(=O)c5ccc(NCCSc6ccccc6)c(C(F)(F)F)c5)nn4)CC3)cc(OC(F)(F)F)c2)c1` [Compound B2R090-01, 6-[4-[[3-(5-Ethoxypyridin-3-yl)-5-(trifluoromethoxy)phenyl]methyl]piperazin-1-yl]-N-[4-(2-phenylsulfanylethylamino)-3-(trifluoromethyl)phenyl]sulfonylpyridazine-3-carboxamide], the “ASMS ratio (%) n = 1” value under setting [1] is 22.4%. Under setting [2], the “ASMS ratio (%) n = 2” value is given as 5.3%.

On to `CCOc1cccc(-c2cc(CN3CCN(c4ccc(C(=O)NS(=O)(=O)CCC(F)(F)F)nn4)CC3)cc(OC(C)C)c2)c1` [Compound B2N083-01, 6-[4-[[3-(3-Ethoxyphenyl)-5-propan-2-yloxyphenyl]methyl]piperazin-1-yl]-N-(3,3,3-trifluoropropylsulfonyl)pyridazine-3-carboxamide], for which the “ASMS ratio (%) n = 1” value under setting [1] turned out to be 0.0%. In addition, the “ASMS ratio (%) n = 2” value under setting [2] amounted to 0.0%.

As to `CCOc1cccc(-c2ccc(C(=O)N3CCN(c4ccc(C(=O)NS(=O)(=O)CCC(F)(F)F)cc4)CC3)cc2C)c1` [Compound B2N025-01, 4-[4-[4-(3-Ethoxyphenyl)-3-methylbenzoyl]piperazin-1-yl]-N-(3,3,3-trifluoropropylsulfonyl)benzamide], the “ASMS ratio (%) n = 1” value under setting [1] is given as 0.0%. Also, under setting [2], the “ASMS ratio (%) n = 2” value was found to be 0.0%.

Take `CCOc1cncc(-c2ccc(C(=O)N3CCN(c4ccc(C(=O)NS(=O)(=O)CCC(F)(F)F)cc4)CC3)cc2C)c1` [Compound B2N026-01, 4-[4-[4-(5-Ethoxypyridin-3-yl)-3-methylbenzoyl]piperazin-1-yl]-N-(3,3,3-trifluoropropylsulfonyl)benzamide]: under setting [1], the “ASMS ratio (%) n = 1” value is recorded as −1.5%. Besides, the “ASMS ratio (%) n = 2” value under setting [2] is −0.7%.

Regarding `CCOc1cncc(C#Cc2ccccc2CN2CCN(c3ccc(C(=O)NS(=O)(=O)C(C)(C)C)nn3)CC2)c1` [Compound B2L096-01], the “ASMS ratio (%) n = 1” value under setting [1] is on record as 0.0%. Moreover, the “ASMS ratio (%) n = 2” value under setting [2] was 0.0%.

Consider `CCOc1cncc(-c2cc(C(=O)N3CCN(c4ccc(C(=O)NCC56CC7CC(CC(C7)C5)C6)nn4)CC3)cc(C(C)(C)C)c2)c1` [Compound B1A016-01, N-(1-Adamantylmethyl)-6-[4-[3-tert-butyl-5-(5-ethoxypyridin-3-yl)benzoyl]piperazin-1-yl]pyridazine-3-carboxamide], for which the “ASMS ratio (%) n = 2” value (mixture library of 1200 compounds/well, Bcl-2 protein, replicate n = 2, compounds assigned by expected m/z) is on record as −4. %.

Consider `CCOc1cccc(-c2ccc(C(C)N3CCN(c4ccc(C(=O)NS(=O)(=O)CCC(F)(F)F)cc4)CC3)c(F)c2)c1` (stereo not shown) [Compound B2N099-01, 4-[4-[1-[4-(3-Ethoxyphenyl)-2-fluorophenyl]ethyl]piperazin-1-yl]-N-(3,3,3-trifluoropropylsulfonyl)benzamide], for which the “ASMS ratio (%) n = 1” value under setting [1] was 0.0%. Also, the “ASMS ratio (%) n = 2” value under setting [2] is 0.0%.

For the molecule “4-[4-[[2-[2-(3-Ethoxyphenyl)ethynyl]phenyl]methyl]piperazin-1-yl]-N-propylbenzamide [Compound B1M052-01]”, under setting [3], the “ASMS ratio (%) n = 1” value amounted to 27.6%. Also, the “ASMS ratio (%) n = 2” value under setting [4] is reported as 20.2%.

Take `CCOc1cncc(-c2ccc(C(=O)N3CCN(c4ccc(C(=O)NS(=O)(=O)c5ccc(NCCSc6ccccc6)c(C(F)(F)F)c5)cc4)CC3)cc2C)c1` [Compound B2R026-01, 4-[4-[4-(5-Ethoxypyridin-3-yl)-3-methylbenzoyl]piperazin-1-yl]-N-[4-(2-phenylsulfanylethylamino)-3-(trifluoromethyl)phenyl]sulfonylbenzamide]: the “ASMS ratio (%) n = 1” value under setting [1] is listed as 1.7%. For the same molecule, under setting [2], the “ASMS ratio (%) n = 2” value is reported as −4.6%.

On to `CCOc1cccc(-c2ccc(CN3CCN(c4ccc(C(=O)NS(C)(=O)=O)cc4)CC3)c3ccccc23)c1` [Compound B2I065-01, 4-[4-[[4-(3-Ethoxyphenyl)naphthalen-1-yl]methyl]piperazin-1-yl]-N-methylsulfonylbenzamide], for which the “ASMS ratio (%) n = 1” value under setting [5] came to 0.0%. In addition, the “ASMS ratio (%) n = 2” value under setting [6] stood at 0.0%.

On to `CCOc1cccc(-c2ccc(CN3CCN(c4ccc(C(=O)NS(C)(=O)=O)cc4)CC3)c(CC)c2)c1` [Compound B2I049-01, 4-[4-[[4-(3-Ethoxyphenyl)-2-ethylphenyl]methyl]piperazin-1-yl]-N-methylsulfonylbenzamide], for which the “ASMS ratio (%) n = 1” value under setting [5] came to 0.0%. The “ASMS ratio (%) n = 2” value under setting [6] came to 0.0%.

For the molecule `CCOc1cncc(-c2cc(CN3CCN(c4ccc(C(=O)NS(C)(=O)=O)cc4)CC3)cc(OC(F)(F)F)c2)c1` [Compound B2I064-01, 4-[4-[[3-(5-Ethoxypyridin-3-yl)-5-(trifluoromethoxy)phenyl]methyl]piperazin-1-yl]-N-methylsulfonylbenzamide], under setting [5], the “ASMS ratio (%) n = 1” value is reported as 0.0%. In addition, under setting [6], the “ASMS ratio (%) n = 2” value was 0.0%.

Take `CCOc1cccc(-c2cc(CN3CCN(c4ccc(C(=O)NCC(F)(F)F)cc4)CC3)cc(OC(F)(F)F)c2)c1` [Compound B1K063-01, 4-[4-[[3-(3-Ethoxyphenyl)-5-(trifluoromethoxy)phenyl]methyl]piperazin-1-yl]-N-(2,2,2-trifluoroethyl)benzamide]: the “ASMS ratio (%) n = 1” value under setting [3] was 3.9%. The “ASMS ratio (%) n = 2” value under setting [4] came to 0.4%.

On to `CCOc1cncc(-c2ccc(CN3CCN(c4ccc(C(=O)NS(=O)(=O)CCC(F)(F)F)cc4)CC3)c(CC)c2)c1` [Compound B2N050-01], for which the “ASMS ratio (%) n = 1” value under setting [1] is 0.0%.

As to `CCOc1cncc(-c2ccc(C(=O)N3CCN(c4ccc(C(=O)NS(=O)(=O)CCC(F)(F)F)cc4)CC3)cc2F)c1` [Compound B2N028-01, 4-[4-[4-(5-Ethoxypyridin-3-yl)-3-fluorobenzoyl]piperazin-1-yl]-N-(3,3,3-trifluoropropylsulfonyl)benzamide], the “ASMS ratio (%) n = 1” value under setting [1] is −0.7%. Also, the “ASMS ratio (%) n = 2” value under setting [2] is reported as −0.9%.

Consider `CCOc1cncc(-c2cc(C(=O)N3CCN(c4ccc(C(=O)NS(=O)(=O)c5ccc(NCCSc6ccccc6)c(C(F)(F)F)c5)cc4)CC3)cc(C(C)(C)C)c2)c1` [Compound B2R038-01, 4-[4-[3-tert-Butyl-5-(5-ethoxypyridin-3-yl)benzoyl]piperazin-1-yl]-N-[4-(2-phenylsulfanylethylamino)-3-(trifluoromethyl)phenyl]sulfonylbenzamide], for which the “ASMS ratio (%) n = 1” value under setting [1] stood at 7.1%. Under setting [2], the “ASMS ratio (%) n = 2” value is given as −6.0%.

In the case of `CCCNC(=O)c1ccc(N2CCN(C(=O)c3ccccc3C#Cc3cccc(OCC)c3)CC2)nn1` [Compound B1M007-01], the “ASMS ratio (%) n = 1” value under setting [3] came to 0.3%. Also, the “ASMS ratio (%) n = 2” value under setting [4] turned out to be 0.3%.

For `CCOc1cncc(-c2cc(C(=O)N3CCN(c4ccc(C(=O)NS(=O)(=O)c5ccc(NCCSc6ccccc6)c([N+](=O)[O-])c5)cc4)CC3)cc(C(F)(F)F)c2)c1` [Compound B2Q040-01, 4-[4-[3-(5-Ethoxypyridin-3-yl)-5-(trifluoromethyl)benzoyl]piperazin-1-yl]-N-[3-nitro-4-(2-phenylsulfanylethylamino)phenyl]sulfonylbenzamide], the “ASMS ratio (%) n = 1” value (Example 4 mixture library, 1200 compounds/well, Bcl-2 protein, replicate n = 1, value belongs to the MS peak assignable to the compound) is on record as 3.9%. Besides, for the setting “Example 4 mixture library, 1200 compounds/well, Bcl-2 protein, replicate n = 2, value belongs to the MS peak assignable to the compound”, the “ASMS ratio (%) n = 2” value worked out at 1.5%.
